Where two headings read alike, the source gives them in different places.
Columns and labels:
RORγt [1] = biological target: T1, RORγt (Homo sapiens, UniProt P51449); experiment: Cofactor recruitment test (Alpha Screen, biotinylated SRC-1 peptide); assay type: biochemical; conditions: for inhibition at 1 µM: read-out: signal value inhibitory rate at test compound 1 μM
T1 sequence (P51449 1-497 isoform P51449-2): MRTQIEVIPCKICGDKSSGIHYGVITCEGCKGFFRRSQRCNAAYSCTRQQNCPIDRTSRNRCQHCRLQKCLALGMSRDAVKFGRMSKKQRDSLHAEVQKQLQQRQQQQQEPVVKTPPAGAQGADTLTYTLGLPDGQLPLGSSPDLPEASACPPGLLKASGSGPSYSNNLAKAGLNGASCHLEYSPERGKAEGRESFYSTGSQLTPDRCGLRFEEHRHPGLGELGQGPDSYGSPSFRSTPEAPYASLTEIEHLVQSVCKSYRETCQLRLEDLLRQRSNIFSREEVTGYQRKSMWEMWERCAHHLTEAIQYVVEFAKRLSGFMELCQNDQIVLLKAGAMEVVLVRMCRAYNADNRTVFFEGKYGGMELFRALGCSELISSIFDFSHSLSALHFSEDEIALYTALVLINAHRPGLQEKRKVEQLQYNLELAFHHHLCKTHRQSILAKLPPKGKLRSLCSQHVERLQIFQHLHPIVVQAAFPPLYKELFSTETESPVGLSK
Experimental: Cofactor Recruitment Test
Cofactor recruitment test was performed by Alpha Screen (Histidine Detection Kit, PerkinElmer) method. First, a test compound was diluted with an assay buffer (50 mM Tris-HCl (pH 7.5), 50 mM KCl, 1 mM DTT, 0.1% BSA) and added to a 384 well plate by 5 μL. […] The mixture was stood in a dark place for 1 hr, and the signal value was measured by Envision (PerkinElmer).

RORγt [2] = biological target: T1, RORγt; experiment: RORγt binding test using fluorescent-labeled synthetic ligand (TR-FRET); conditions: for inhibition at 1 µM: read-out: binding inhibitory rate of fluorescent-labeled synthetic ligand to RORγt at test compound 1 μM
Experimental: RORγt Binding Test using Fluorescent-Labeled Synthetic Ligand
The binding activity of the test compound to RORγt was measured by a time resolved fluorescence resonance energy transfer method (TR-FRET) utilizing histidine-tagged RORγt, fluorescent-labeled synthetic ligand and terbium-labeled anti-histidine tag antibody (Invitrogen). First, a test compound diluted with an assay buffer (20 mM Tris-HCl (pH 7.5), 100 mM NaCl, 1 mM DTT, 0.1% BSA) was added to a 384 well plate by 3 μL. Then, RORγt diluted with an assay buffer to 240 nM was added by 3 μL, after which fluorescent-labeled synthetic ligand diluted with the assay buffer to 12 μM was added by 3 μL, and the mixture was stood at room temperature for 20 min. Thereafter, a terbium-labeled anti-histidine tag antibody diluted with the assay buffer to 8 nM was added by 3 μL. The mixture was stood at room temperature for 20 min, and fluorescence intensity (excitation wavelength 320 nm, fluorescence wavelength 520 nm, delay time 100 microseconds) was measured by Envision (PerkinElmer).

RORγt [3] = biological target: T1, RORγt; experiment: Jurkat reporter test (human IL-17 ROR response element luciferase, RORγt vector); assay type: cell-based; conditions: Jurkat cells; for inhibition at 3 µM: test compound 3 μM, read-out: luminescence level inhibitory rate at test compound 3 μM
Experimental: The Jurkat cells used for the reporter test were cultured in a culture medium (RPMI (Invitrogen), 10% FCS (AusGeneX), 100 U/mL penicillin, 100 μg/mL streptomycin). On the day of the test, 4×10^7 cells were recovered by a centrifugal operation (1000 rpm, 5 min.) and suspended in PBS (phosphate buffered saline) (Invitrogen). Thereafter, the cells were recovered again by a centrifugal operation, and suspended in 2 mL of R buffer (NEON transfection kit, Invitrogen). […] Gene transfer was performed by Electroporation apparatus (NEON, Invitrogen) under the conditions of pulse voltage 1350 V, interval 10 milliseconds, number of times 3. The cells after gene transfer were suspended in 40 mL of a reaction medium (RPMI, 10% Lipid reduced FCS (HyClone), 10 mM HEPES (pH 7.5), 100 U/mL penicillin, 100 μg/mL streptomycin, 5 μM lovastatin), and plated in a 96 well plate by 90 μL. A test compound diluted with the reaction medium was added by 10 μL, and the cells were cultured overnight in an incubator. Bright-Glo (Promega) was added by 100 μL, and the mixture was stirred at room temperature for 10 min, and the luminescence level was measured by Envision (PerkinElmer).

| Compound | inhibition at 1 µM (RORγt [1]) | inhibition at 1 µM (RORγt [2]) | inhibition at 3 µM (RORγt [3]) | inhibition at 1 µM (RORγt [1]; test compound 1 μM) | inhibition at 1 µM (RORγt [2]; test compound 1 μM) | inhibition at 3 µM (RORγt [3]; Jurkat) | further results |
| --- | --- | --- | --- | --- | --- | --- | --- |
| COc1ccc2c(n1)CCN(C(=O)[C@@H]1C[C@H]1CC(=O)O)[C@H]2C(=O)Nc1cc(F)c([Si](C)(C)C)c(F)c1 [Example 14, ((1S,2R)-2-(((5R)-5-((3,5-difluoro-4-(trimethylsilyl)phenyl)carbamoyl)-2-methoxy-7,8-dihydro-1,6-naphthyridin-6(5H)-yl)carbonyl)cyclopropyl)acetic acid] | 86% | 101% | 100% |  |  |  |  |
| COc1ccc2c(n1)CCN(C(=O)[C@H]1C[C@@H](C(=O)OCc3ccccc3)C1)[C@H]2C(=O)Nc1cc(F)c2c(c1)CCC2(C)C [Example 36, benzyl cis-3-(((5R)-5-((7-fluoro-1,1-dimethyl-2,3-dihydro-1H-inden-5-yl)carbamoyl)-2-methoxy-7,8-dihydro-1,6-naphthyridin-6(5H)-yl)carbonyl)cyclobutanecarboxylate] |  |  |  | 72% | 102% | 102% |  |
| COc1ccc2c(n1)CCN(C(=O)[C@H]1C[C@@H](C(=O)OCc3oc(=O)oc3C)C1)[C@H]2C(=O)Nc1cc(F)c2c(c1)CCC2(C)C [Example 44, (5-methyl-2-oxo-1,3-dioxol-4-yl)methyl cis-3-(((5R)-5-((7-fluoro-1,1-dimethyl-2,3-dihydro-1H-inden-5-yl)carbamoyl)-2-methoxy-7,8-dihydro-1,6-naphthyridin-6(5H)-yl)carbonyl)cyclobutanecarboxylate] |  |  |  | 61% | 102% | 102% |  |
| COc1ccc2c(c1)CCN(C(=O)C1CC1C(=O)O)[C@H]2C(=O)Nc1cc(F)c([Si](C)(C)C)c(F)c1 (single isomer, unassigned) [Example 3] | 84% | 102% | 97% |  |  |  |  |
| COCC(C)(C)c1c(F)cc(NC(=O)[C@H]2c3ccc(OC)cc3CCN2C(=O)[C@H]2C[C@@H](CC(=O)O)C2)cc1F [Example 35, (cis-3-(((1R)-1-((3,5-difluoro-4-(1-methoxy-2-methylpropan-2-yl)phenyl)carbamoyl)-6-methoxy-3,4-dihydroisoquinolin-2(1H)-yl)carbonyl)cyclobutyl)acetic acid] |  |  |  | 83% | 102% | 99% |  |
| COc1ccc2c(n1)CCN(C(=O)[C@H]1C[C@@H](C(=O)OC)C1)[C@H]2C(=O)Nc1cc(F)c2c(c1)CCC2(C)C [Example 46, methyl cis-3-(((5R)-5-((7-fluoro-1,1-dimethyl-2,3-dihydro-1H-inden-5-yl)carbamoyl)-2-methoxy-7,8-dihydro-1,6-naphthyridin-6(5H)-yl)carbonyl)cyclobutanecarboxylate] |  |  |  | 69% | 102% | 102% |  |
| COc1ccc2c(c1)CCN(C(=O)[C@H]1C[C@H](C(=O)O)C1)[C@H]2C(=O)Nc1cc(F)c([Si](C)(C)C)c(F)c1 [Example 12, trans-3-(((1R)-1-((3,5-difluoro-4-(trimethylsilyl)phenyl)carbamoyl)-6-methoxy-3,4-dihydroisoquinolin-2(1H)-yl)carbonyl)cyclobutanecarboxylic acid] | 91% | 102% | 99% |  |  |  |  |
| COCc1ccc2c(c1)CCN(C(=O)[C@H]1C[C@@H](CC(=O)O)C1)[C@H]2C(=O)Nc1cc(F)c2c(c1)CCC2(C)C [Example 40-A, monopotassium (cis-3-(((1R)-1-((7-fluoro-1,1-dimethyl-2,3-dihydro-1H-inden-5-yl)carbamoyl)-6-(methoxymethyl)-3,4-dihydroisoquinolin-2(1H)-yl)carbonyl)cyclobutyl)acetate acetonitrile solvate] |  |  |  |  |  |  | signal value inhibitory rate at test compound 1 μM (RORγt [1]; test compound 1 μM, 1 µM): 87%; binding inhibitory rate of fluorescent-labeled synthetic ligand to RORγt at test compound 1 μM (RORγt [2]; test compound 1 μM, 1 µM): 102%; luminescence level inhibitory rate at test compound 3 μM (RORγt [3]; 3 µM): 104% |
| COc1ccc2c(c1)CCN(C(=O)[C@H]1C[C@H](CC(=O)O)C1)[C@H]2C(=O)Nc1cc(F)c([Si](C)(C)C)c(F)c1 [Example 27, (trans-3-(((1R)-1-((3,5-difluoro-4-(trimethylsilyl)phenyl)carbamoyl)-6-methoxy-3,4-dihydroisoquinolin-2(1H)-yl)carbonyl)cyclobutyl)acetic acid] | 91% | 102% | 103% |  |  |  |  |
| CCOc1ccc2c(c1)CCN(C(=O)[C@H]1C[C@@H](CC(=O)O)C1)[C@H]2C(=O)Nc1cc(F)c(C(C)(C)COC)c(F)c1 [Example 17, (cis-3-(((1R)-1-((3,5-difluoro-4-(1-methoxy-2-methylpropan-2-yl)phenyl)carbamoyl)-6-ethoxy-3,4-dihydroisoquinolin-2(1H)-yl)carbonyl)cyclobutyl)acetic acid] |  |  |  | 85% | 101% | 99% |  |
| COc1ccc2c(n1)CCN(C(=O)[C@H]1C[C@@H](CC(=O)OCc3oc(=O)oc3C)C1)[C@H]2C(=O)Nc1cc(F)c2c(c1)CCC2(C)C [Example 38, (5-methyl-2-oxo-1,3-dioxol-4-yl)methyl (cis-3-(((5R)-5-((7-fluoro-1,1-dimethyl-2,3-dihydro-1H-inden-5-yl)carbamoyl)-2-methoxy-7,8-dihydro-1,6-naphthyridin-6(5H)-yl)carbonyl)cyclobutyl)acetate] |  |  |  | 61% | 102% | 102% |  |
| CCOC(=O)C[C@H]1C[C@@H](C(=O)N2CCc3nc(OC)ccc3[C@@H]2C(=O)Nc2cc(F)c3c(c2)CCC3(C)C)C1 [Example 39, ethyl (cis-3-(((5R)-5-((7-fluoro-1,1-dimethyl-2,3-dihydro-1H-inden-5-yl)carbamoyl)-2-methoxy-7,8-dihydro-1,6-naphthyridin-6(5H)-yl)carbonyl)cyclobutyl)acetate] |  |  |  | 63% | 101% | 103% |  |
| COc1ccc2c(c1)CCN(C(=O)[C@H]1C[C@H](CC(=O)O)C1)[C@H]2C(=O)Nc1ccc([Si](C)(C)C)c(F)c1 [Example 34, (trans-3-(((1R)-1-((3-fluoro-4-(trimethylsilyl)phenyl)carbamoyl)-6-methoxy-3,4-dihydroisoquinolin-2(1H)-yl)carbonyl)cyclobutyl)acetic acid] | 88% | 102% | 100% |  |  |  |  |
| COc1ccc2c(c1)CCN(C(=O)[C@@H]1C[C@H]1CC(=O)O)[C@H]2C(=O)Nc1cc(F)c([Si](C)(C)C)c(F)c1 [Example 30, ((1S,2R)-2-(((1R)-1-((3,5-difluoro-4-(trimethylsilyl)phenyl)carbamoyl)-6-methoxy-3,4-dihydroisoquinolin-2(1H)-yl)carbonyl)cyclopropyl)acetic acid] | 90% | 101% | 100% |  |  |  |  |
| COC(=O)C[C@H]1C[C@@H](C(=O)N2CCc3nc(OC)ccc3[C@@H]2C(=O)Nc2cc(F)c3c(c2)CCC3(C)C)C1 [Example 45, methyl (cis-3-(((5R)-5-((7-fluoro-1,1-dimethyl-2,3-dihydro-1H-inden-5-yl)carbamoyl)-2-methoxy-7,8-dihydro-1,6-naphthyridin-6(5H)-yl)carbonyl)cyclobutyl)acetate] |  |  |  | 66% | 101% | 101% |  |
